Here are results for 17 compounds from patent US12065443B2, “Compounds and pharmaceutical compositions thereof for the treatment of diseases” (priority 2017, dated 2024).

Some results are limits rather than exact numbers.

The target of assay [1] is T1, SIK2 (Homo sapiens, UniProt Q9H0K1).
T1 construct: purchased ThermoFisher Scientific PV4792
Nature of the assay: biochemical. Particulars: 33P radioactive SIK kinase assay, AMARA peptide, 10 μM ATP. In outline:
(§1)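 Read-out: ^33P incorporated into AMARA peptide, counted on filter plates, taken as kinase activity. Reactions start on addition of labeled/unlabeled ATP to enzyme plus substrate and end with phosphoric acid. Controls: 1% DMSO (negative) and 10 μM staurosporine (positive), final.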

Assay [2] addresses T2, SIK3 (Homo sapiens, UniProt Q9Y2K2).
T2 construct: purchased SignalChem S12-11G-100
Description: biochemical. The method, boiled down:
as §1

Assay [3] concerns the target T3, SIK1 (Homo sapiens, UniProt P57059).
T3 construct: purchased Carna Biosciences 02-131
Description: biochemical. Conditions: 33P radioactive SIK kinase assay, AMARA peptide, 10 μM ATP; read-out: SIK1 IC50. The method, boiled down:
as §1

In assay [4] the test system is LPS-induced TNFα secretion in monocyte-derived macrophages (MdM). Description: MdM assay: LPS-triggered TNFα (ELISA). Conditions: Homo sapiens, Macrophage, LPS-triggered TNFα inhibition. It counts as cell-based, human. The method, then: This assay evaluates illustrative compounds of the invention for their inhibition of LPS-induced TNFα and LPS triggered IL-10 secretion in monocyte-derived macrophages.
PBMCs are isolated from human blood samples (buffycoats). The buffy coat is aseptically transferred into a 50 mL Falcon tube, and diluted 1/2 in PBS. Falcon tubes are filled with 20 mL Lymphoprep™, on top of which 25 mL of the buffy coat is carefully added, tubes are centrifuged for 35 min at 400 g in temperature controlled centrifuge, without brake, at 25° C. PBMCs are aspirated from the white interface layer between sample and Lymphoprep™. PBMCs are washed five times in PBS.
PBMCs are centrifuged at 300×g for 10 min and resuspended at a density of 1.0E07 cells/80 μL Miltenyi buffer (PBS, pH 7.4, 1% FBS, 2 mM EDTA).
Starting from this point of the protocol all steps are performed on ice. 20 μL of CD14+ micro-beads are added per 1.0E07 cells, the tube is mixed and incubated for 15 min in the fridge at 4° C. Cell suspension volume is adjusted to total volume of 100 mL using Miltenyi buffer, mixed gently and subsequently centrifuged for 10 min at 300× g. Supernantant is discarded and cell pellet is resuspended in 12 mL of Miltenyi buffer.
Four LS columns are placed in the MACS Separator (magnet) from Miltenyi Biotec, and are prewet by rinsing with 3 mL of MACS buffer per column. Three mL of cell suspension is added onto the column (max 1*10^8 of labelled cells/column), and columns are subsequently washed 3 times with 3 mL of Miltenyi buffer.
The columns are removed from the magnets, and 5 mL of Miltenyi buffer are added to the column to flush out the CD14+ fraction by pushing the plunger into the column. The flushed fractions are collected in a fresh 50 mL Falcon and volume is adjusted to 30 mL using Miltenyi buffer, cells are centrifuged for 10 min at 300× g. The obtained cell pellet is resuspended in 10 mL RPMI w/o FBS, and cell density is determined using a hematologic analyser (Sysmex XS-500i).
On day 10, MdMs are triggered and compound is added.
A compound dilution plate is made in 100% DMSO by 3-fold dilution of 10 mM stock solution. An intermediate dilution plate (10× final concentration) is made by diluting the compound dilution plate 50-fold in RPMI medium.
Medium is carefully removed from cell plates using multichannel pipette, and replaced by 80 μL fresh medium. 10 μL of the 10× final concentration compound is added to the cells and incubated for 1 hour at 37° C. before addition of trigger. No trigger conditions/trigger conditions are spiked with equal final DMSO concentrations of 0.2% DMSO. 10 μL of 10×LPS (final conc. 200 ng/mL) solution are added to all wells except for the ‘no trigger wells’ where 10 μL medium is added. Supernatant is collected after 2 h (IL-10 determination) and after 20 h (TNFα determination) of LPS triggering.
The plate is then washed once with PBST (PBS+0.05% Tween20) and once with PBS followed by the addition of 100 μL of blocking buffer (1% Bovine Serum Albumin (BSA)-5% Sucrose) and plates are sealed and incubated for at least 4 h at RT. After washing the plate once with PBST and once with PBS, 40 μL of standard or sample are added (TNFα standard curve is prepared using a 1/2 serial dilution starting from 16000 pg/mL; dilutions are made in dilution buffer (PBS+1% BSA)). Plates are washed twice with PBST, and once with PBS, after which 35 μL of the detection antibody is added (final concentration 0.25 μg/mL diluted in dilution buffer) and plates are incubated for at least 2 h at RT. Plates are washed twice with PBST, and once with PBS, where after 35 μL of Strep-HRP conjugate (0.5 μg/mL final concentration diluted in dilution buffer) is added. Plates are incubated in the dark, at RT for at least 45 min but no longer than 1 hour. Plates are washed twice with PBST, and once with PBS.
In general terms: In an ELISA, binding on a coated surface is turned into a signal by an enzyme label.

T1 sequence (Q9H0K1 whole entry): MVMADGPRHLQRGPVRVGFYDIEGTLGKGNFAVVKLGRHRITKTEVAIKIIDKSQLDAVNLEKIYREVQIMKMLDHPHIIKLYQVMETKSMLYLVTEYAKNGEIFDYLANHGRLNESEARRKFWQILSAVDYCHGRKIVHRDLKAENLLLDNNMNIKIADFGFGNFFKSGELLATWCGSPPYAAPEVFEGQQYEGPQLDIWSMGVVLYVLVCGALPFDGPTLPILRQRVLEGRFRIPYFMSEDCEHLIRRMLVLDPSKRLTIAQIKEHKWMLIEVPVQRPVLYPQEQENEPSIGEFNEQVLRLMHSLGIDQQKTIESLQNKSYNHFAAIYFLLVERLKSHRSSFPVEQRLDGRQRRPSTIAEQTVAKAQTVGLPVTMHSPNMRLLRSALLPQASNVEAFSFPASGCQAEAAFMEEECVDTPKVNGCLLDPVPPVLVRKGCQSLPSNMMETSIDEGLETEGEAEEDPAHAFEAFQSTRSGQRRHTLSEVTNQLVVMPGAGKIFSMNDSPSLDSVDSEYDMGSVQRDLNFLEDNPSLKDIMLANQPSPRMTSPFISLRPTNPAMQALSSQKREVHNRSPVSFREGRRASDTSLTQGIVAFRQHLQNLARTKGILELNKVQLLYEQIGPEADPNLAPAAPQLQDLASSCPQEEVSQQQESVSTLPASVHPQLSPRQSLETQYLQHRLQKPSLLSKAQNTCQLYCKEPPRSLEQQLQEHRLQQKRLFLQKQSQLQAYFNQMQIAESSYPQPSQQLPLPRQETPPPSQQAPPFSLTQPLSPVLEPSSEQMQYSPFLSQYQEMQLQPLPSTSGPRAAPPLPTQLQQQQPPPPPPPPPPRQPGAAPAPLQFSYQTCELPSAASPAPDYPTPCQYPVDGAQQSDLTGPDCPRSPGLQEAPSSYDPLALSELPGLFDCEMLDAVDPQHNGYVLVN
T2 sequence (Q9Y2K2 whole entry): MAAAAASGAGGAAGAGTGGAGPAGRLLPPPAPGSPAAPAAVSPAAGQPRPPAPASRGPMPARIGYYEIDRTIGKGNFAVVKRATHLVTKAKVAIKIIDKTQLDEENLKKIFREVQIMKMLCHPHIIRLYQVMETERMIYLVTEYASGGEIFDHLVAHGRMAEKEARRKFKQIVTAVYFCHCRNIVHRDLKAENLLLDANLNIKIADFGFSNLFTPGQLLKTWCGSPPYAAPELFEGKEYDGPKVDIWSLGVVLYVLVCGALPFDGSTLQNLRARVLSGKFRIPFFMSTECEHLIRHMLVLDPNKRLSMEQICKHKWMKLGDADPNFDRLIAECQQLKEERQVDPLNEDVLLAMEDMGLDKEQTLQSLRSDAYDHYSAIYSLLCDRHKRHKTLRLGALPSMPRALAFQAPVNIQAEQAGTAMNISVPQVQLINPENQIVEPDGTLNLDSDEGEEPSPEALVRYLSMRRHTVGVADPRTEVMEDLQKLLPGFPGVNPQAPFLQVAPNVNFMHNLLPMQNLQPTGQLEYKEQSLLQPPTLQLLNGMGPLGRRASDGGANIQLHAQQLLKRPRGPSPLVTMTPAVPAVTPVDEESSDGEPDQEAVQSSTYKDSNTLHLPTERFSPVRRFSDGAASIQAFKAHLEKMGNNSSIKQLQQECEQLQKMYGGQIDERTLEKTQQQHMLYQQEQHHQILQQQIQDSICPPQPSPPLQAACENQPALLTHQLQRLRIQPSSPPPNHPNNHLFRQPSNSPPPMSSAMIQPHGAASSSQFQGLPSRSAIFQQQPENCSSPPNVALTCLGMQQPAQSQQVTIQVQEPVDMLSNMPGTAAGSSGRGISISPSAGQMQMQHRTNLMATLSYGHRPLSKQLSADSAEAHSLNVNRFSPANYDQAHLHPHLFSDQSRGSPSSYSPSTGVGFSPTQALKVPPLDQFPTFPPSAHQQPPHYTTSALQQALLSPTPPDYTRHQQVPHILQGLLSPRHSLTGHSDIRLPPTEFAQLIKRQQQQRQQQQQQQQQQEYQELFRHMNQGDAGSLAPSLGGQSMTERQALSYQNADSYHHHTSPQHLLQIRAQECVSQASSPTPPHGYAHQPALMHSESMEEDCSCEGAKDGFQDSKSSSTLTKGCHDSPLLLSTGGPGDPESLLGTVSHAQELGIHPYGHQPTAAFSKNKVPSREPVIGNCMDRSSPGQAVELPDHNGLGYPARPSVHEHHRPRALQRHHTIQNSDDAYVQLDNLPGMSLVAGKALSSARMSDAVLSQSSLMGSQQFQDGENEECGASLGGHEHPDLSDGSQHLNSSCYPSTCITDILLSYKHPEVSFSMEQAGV
T3 sequence (P57059 whole entry): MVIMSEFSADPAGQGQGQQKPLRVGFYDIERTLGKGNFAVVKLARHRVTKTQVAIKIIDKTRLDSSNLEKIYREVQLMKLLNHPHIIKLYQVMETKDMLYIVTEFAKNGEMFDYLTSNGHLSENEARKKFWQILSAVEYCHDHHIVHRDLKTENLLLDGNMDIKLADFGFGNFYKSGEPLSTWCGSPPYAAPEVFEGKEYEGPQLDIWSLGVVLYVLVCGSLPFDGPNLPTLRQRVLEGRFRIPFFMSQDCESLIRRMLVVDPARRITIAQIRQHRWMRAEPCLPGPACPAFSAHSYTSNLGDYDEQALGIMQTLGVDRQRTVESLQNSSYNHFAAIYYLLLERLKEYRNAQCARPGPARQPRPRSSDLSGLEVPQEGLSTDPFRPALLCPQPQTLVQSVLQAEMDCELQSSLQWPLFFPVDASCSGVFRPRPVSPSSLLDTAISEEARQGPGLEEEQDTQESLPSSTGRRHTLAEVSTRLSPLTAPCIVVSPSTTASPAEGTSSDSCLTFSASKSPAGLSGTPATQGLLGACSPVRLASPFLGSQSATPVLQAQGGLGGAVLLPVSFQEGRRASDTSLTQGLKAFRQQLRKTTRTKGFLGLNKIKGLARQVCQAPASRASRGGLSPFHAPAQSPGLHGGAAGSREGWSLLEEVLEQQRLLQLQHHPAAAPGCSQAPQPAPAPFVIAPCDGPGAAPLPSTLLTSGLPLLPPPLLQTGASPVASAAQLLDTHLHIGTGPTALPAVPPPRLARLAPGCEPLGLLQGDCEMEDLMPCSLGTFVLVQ

What is called IC50 is the concentration that gives 50% inhibition. As a reminder, the EC50 is the midpoint of the concentration-response curve. Turning to `COc1cc(-n2cnc3cc(-c4cnn(C)c4)ccc32)cc(OC)c1C(=O)NC1CCCC[C@H]1N` (stereo in doubt) [compound 139, N-[(1R,2R)-2-aminocyclohexyl]-2,6-dimethoxy-4-[5-(1-methylpyrazol-4-yl)benzimidazol-1-yl]benzamide], the 50% inhibitory concentration (IC50) in assay [1], in assay [2] and in assay [3] was 0.01 to 10 nM throughout. Moreover, in assay [4], the EC50 lay in the range of 1000 to 5000 nM.
In the case of `COc1cc(-c2cnn3cc(-c4cnn(C)c4)cnc23)cc(OC)c1C(=O)NCC(F)(F)F` [Cpd 52, 2,6-dimethoxy-4-[6-(1-methylpyrazol-4-yl)pyrazolo[1,5-a]pyrimidin-3-yl]-N-(2,2,2-trifluoroethyl)benzamide], the IC50 was 0.01 to 10 nM in assay [1], 10 to 100 nM in assay [2] and 10 to 100 nM in assay [3]. Moreover, the EC50 in assay [4] lay in the range of 100 to 1000 nM.
On to `COc1cc(-n2cnc3cc(-c4cnn(CC#N)c4)ccc32)cc(OC(F)F)c1C(=O)NC1CC1` [Cpd 55, 4-[5-[1-(cyanomethyl)pyrazol-4-yl]benzimidazol-1-yl]-N-cyclopropyl-2-(difluoromethoxy)-6-methoxy-benzamide], for which the IC50 in assay [1], in assay [2] and in assay [3] was 0.01 to 10 nM throughout. Besides, the EC50 in assay [4] lay within 0.1 to 100 nM.
`COc1cc(-n2cnc3cc(-c4noc(C)n4)ccc32)cc(OC)c1C(=O)NCC(F)(F)F` [Cpd 126, 2,6-dimethoxy-4-[5-(5-methyl-1,2,4-oxadiazol-3-yl)benzimidazol-1-yl]-N-(2,2,2-trifluoroethyl)benzamide]: the 50% inhibitory concentration (IC50) in assay [1], in assay [2] and in assay [3] was > 500 nM throughout. In assay [4], the EC50 was 1000 to 5000 nM.
Take `COc1cc(-n2cnc3cc(-c4nnc(C)[nH]4)ccc32)cc(OC)c1C(=O)NCC(F)(F)F` [Cpd 127, 2,6-dimethoxy-4-[5-(5-methyl-4H-1,2,4-triazol-3-yl)benzimidazol-1-yl]-N-(2,2,2-trifluoroethyl)benzamide]: the half-inhibitory concentration (IC50) is 100 to 500 nM in assay [1], 100 to 500 nM in assay [2] and > 500 nM in assay [3]. In addition, in assay [4], the concentration for a half-maximal effect (EC50) was > 5000 nM.
For the compound `COc1cc(-n2cnc3cc(-c4cn(C)cn4)ccc32)cc(OC)c1C(=O)NCC(F)(F)F` [Cpd 137, 2,6-dimethoxy-4-[5-(1-methylimidazol-4-yl)benzimidazol-1-yl]-N-(2.2,2-trifluoroethyl)benzamide], the IC50 lay in the range of 0.01 to 10 nM in assay [1], 10 to 100 nM in assay [2] and 10 to 100 nM in assay [3]. In assay [4], this compound displayed a 50% effective concentration (EC50) of 100 to 1000 nM.
On to `COc1cc(-n2cnc3cc(-n4cnc(C)c4)ccc32)cc(OC)c1C(=O)NCC(F)(F)F` [Cpd 155, 2.6-dimethoxy-4-[5-(4-methylimidazol-1-yl)benzimidazol-1-yl]-N-(2,2,2-trifluoroethyl)benzamide], for which the IC50 in assay [1] was 10 to 100 nM; in assay [2] it was 10 to 100 nM; in assay [3], 100 to 500 nM. This compound came in with an EC50 in assay [4] of 1000 to 5000 nM.
For the compound `COc1cc(-c2cnc3cc(-c4cnn(CC(=O)OC(C)(C)C)c4)ccn23)cc(OC)c1C(=O)NCC(F)(F)F` [Cpd 229, tert-butyl 2-[4-[3-[3,5-dimethoxy-4-(2,2,2-trifluoroethyl-carbamoyl)phenyl]imidazo[1,2-a]pyridin-7-yl]pyrazol-1-yl]acetate], the 50% inhibitory concentration (IC50) in assay [1], in assay [2] and in assay [3] was 0.01 to 10 nM in each case. The compound further gave a half-maximal effective concentration (EC50) in assay [4] of 100 to 1000 nM.
As to `COc1cc(-n2cnc3cc(-c4cnn(C)c4)ccc32)cc(OC)c1C(=O)N1CC(O)(C2CC2)C1` [compound 220, (3-cyclopropyl-3-hydroxy-azetidin-1-yl)-[2,6-dimethoxy-4-[5-(1-methylpyrazol-4-yl)benzimidazol-1-yl]phenyl]methanone], the 50% inhibitory concentration (IC50) in assay [1], in assay [2] and in assay [3] was 10 to 100 nM throughout.
In the case of `COc1cc(-c2cnc3cc(-c4cc(C)no4)ccn23)cc(OC)c1C(=O)N[C@@H](C)C(F)(F)F` [compound 224, 2,6-dimethoxy-4-[7-(3-methylisoxazol-5-yl)imidazo[1,2-a]pyridin-3-yl]-N-[(1S)-2,2,2-trifluoro-1-methyl-ethyl]benzamide], the IC50 in assay [1], in assay [2] and in assay [3] was 100 to 500 nM in each case.
As for `COC(=O)C1CN(C(=O)c2c(OC)cc(-c3cnc4cc(-c5cnn(C)c5)ccn34)cc2OC)C1` [compound 226, methyl 1-[2,6-dimethoxy-4-[7-(1-methylpyrazol-4-yl)imidazo[1,2-a]pyridin-3-yl]benzoyl)azetidine-3-carboxylate], the IC50 in assay [1], in assay [2] and in assay [3] was 10 to 100 nM in each case.
With `COc1cncc(-c2ccn3c(-c4cc(OC)c(C(=O)NCC(F)(F)F)c(OC)c4)cnc3c2)c1` [compound 245, 2,6-dimethoxy-4-[7-(5-methoxy-3-pyridyl)imidazo[1,2-a]pyridin-3-yl]-N-(2,2,2-trifluoroethyl)benzamide], the IC50 in assay [1] lay within 10 to 100 nM; in assay [2] it was 0.01 to 10 nM; in assay [3], 10 to 100 nM.
Turning to `COc1cc(-c2cnc3cc(-c4cnc(N)nc4)ccn23)cc(OC)c1C(=O)NCC(F)(F)F` [compound 246, 4-[7-(2-aminopyrimidin-5-yl)imidazo[1,2-a]pyridin-3-yl]-2,6-dimethoxy-N-(2,2,2-trifluoroethyl)benzamide], the half-maximal inhibitory concentration (IC50) was in the range of 10 to 100 nM in assay [1], 0.01 to 10 nM in assay [2] and 10 to 100 nM in assay [3].
Regarding `COc1cc(-c2cnc3cc(-c4ccnnc4)ccn23)cc(OC)c1C(=O)NCC(F)(F)F` [compound 247, 2,6-dimethoxy-4-(7-pyridazin-4-ylimidazo[1,2-a]pyridin-3-yl)-N-(2,2,2-trifluoroethyl)benzamide], the IC50 was 10 to 100 nM in assay [1], 0.01 to 10 nM in assay [2] and 10 to 100 nM in assay [3].
Regarding `COc1cc(-c2cnc3cc(-c4cn(C)nc4C(F)(F)F)ccn23)cc(OC)c1C(=O)NCC(F)(F)F` [compound 249, 2,6-dimethoxy-4-[7-[1-methyl-3-(trifluoromethyl)pyrazol-4-yl]imidazo[1,2-a]pyridin-3-yl]-N-(2,2,2-trifluoroethyl)benzamide], the figures for the IC50 in assay [1], in assay [2] and in assay [3] were 10 to 100 nM, 10 to 100 nM and 100 to 500 nM, respectively.
With `COc1cc(-c2cnc3cc(-c4cccnc4OC)ccn23)cc(OC)c1C(=O)NCC(F)(F)F` [compound 250, 2,6-dimethoxy-4-[7-(2-methoxy-3-pyridyl)imidazo[1,2-a]pyridin-3-yl]-N-(2,2,2-trifluoroethyl)benzamide], the IC50 in assay [1] fell in the range of 10 to 100 nM; in assay [2] it was 10 to 100 nM; in assay [3] it was 100 to 500 nM.
Turning to `COc1cc(-c2cnc3cc(-c4cncnc4C(C)C)ccn23)cc(OC)c1C(=O)NCC(F)(F)F` [compound 253, 4-[7-(4-isopropylpyrimidin-5-yl)imidazo[1,2-a]pyridin-3-yl]-2,6-dimethoxy-N-(2,2,2-trifluoroethyl)benzamide], the IC50 in assay [1] was > 500 nM; in assay [2], 100 to 500 nM; in assay [3] it was > 500 nM.
